Results published in US20250101029A1, “ORGANIC COMPOUNDS” (INTRA-CELLULAR THERAPIES, INC., priority 2022, published 2025).

Columns and labels:
Details in all cases: qualitative statement
[1] = biological target: D2 (Homo sapiens, UniProt P14416); experiment: Receptor binding, D2
[2] = biological target: D1 (Homo sapiens, UniProt P21728); experiment: Receptor binding, D1
[3] = biological target: SERT (Homo sapiens, UniProt P31645); experiment: Receptor binding, SERT
[4] = biological target: 5-HT2A (Homo sapiens, UniProt P28223); experiment: Receptor binding, 5-HT2A
Sequence of 5-HT2A (P28223 whole entry): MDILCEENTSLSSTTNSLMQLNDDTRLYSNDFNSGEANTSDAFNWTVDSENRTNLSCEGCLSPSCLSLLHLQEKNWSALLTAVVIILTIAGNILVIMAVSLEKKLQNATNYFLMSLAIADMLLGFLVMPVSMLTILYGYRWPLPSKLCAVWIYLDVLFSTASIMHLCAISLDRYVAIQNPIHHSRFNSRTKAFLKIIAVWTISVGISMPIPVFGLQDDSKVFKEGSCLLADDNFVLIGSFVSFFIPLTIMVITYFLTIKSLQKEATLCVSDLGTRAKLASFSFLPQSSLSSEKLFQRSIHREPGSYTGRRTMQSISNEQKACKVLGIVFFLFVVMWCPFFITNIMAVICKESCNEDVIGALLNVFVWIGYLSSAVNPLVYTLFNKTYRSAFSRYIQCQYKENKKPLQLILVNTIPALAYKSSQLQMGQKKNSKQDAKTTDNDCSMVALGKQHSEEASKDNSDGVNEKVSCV

[5] = biological target: Mu opiate receptor (Homo sapiens, UniProt P35372); experiment: Receptor binding, Mu opiate receptor
Sequence of Mu opiate receptor (P35372 whole entry): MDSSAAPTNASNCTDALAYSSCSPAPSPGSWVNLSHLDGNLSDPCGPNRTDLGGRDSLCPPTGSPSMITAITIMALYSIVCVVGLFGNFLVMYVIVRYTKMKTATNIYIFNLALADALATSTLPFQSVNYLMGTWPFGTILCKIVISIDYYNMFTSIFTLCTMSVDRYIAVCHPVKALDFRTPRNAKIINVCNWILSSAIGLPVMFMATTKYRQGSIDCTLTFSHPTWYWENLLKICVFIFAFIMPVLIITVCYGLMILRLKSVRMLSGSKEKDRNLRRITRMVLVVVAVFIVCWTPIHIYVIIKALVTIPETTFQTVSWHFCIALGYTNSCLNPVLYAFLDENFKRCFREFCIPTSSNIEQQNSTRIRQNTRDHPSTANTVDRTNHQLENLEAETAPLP

Sequence of SERT (P31645 whole entry): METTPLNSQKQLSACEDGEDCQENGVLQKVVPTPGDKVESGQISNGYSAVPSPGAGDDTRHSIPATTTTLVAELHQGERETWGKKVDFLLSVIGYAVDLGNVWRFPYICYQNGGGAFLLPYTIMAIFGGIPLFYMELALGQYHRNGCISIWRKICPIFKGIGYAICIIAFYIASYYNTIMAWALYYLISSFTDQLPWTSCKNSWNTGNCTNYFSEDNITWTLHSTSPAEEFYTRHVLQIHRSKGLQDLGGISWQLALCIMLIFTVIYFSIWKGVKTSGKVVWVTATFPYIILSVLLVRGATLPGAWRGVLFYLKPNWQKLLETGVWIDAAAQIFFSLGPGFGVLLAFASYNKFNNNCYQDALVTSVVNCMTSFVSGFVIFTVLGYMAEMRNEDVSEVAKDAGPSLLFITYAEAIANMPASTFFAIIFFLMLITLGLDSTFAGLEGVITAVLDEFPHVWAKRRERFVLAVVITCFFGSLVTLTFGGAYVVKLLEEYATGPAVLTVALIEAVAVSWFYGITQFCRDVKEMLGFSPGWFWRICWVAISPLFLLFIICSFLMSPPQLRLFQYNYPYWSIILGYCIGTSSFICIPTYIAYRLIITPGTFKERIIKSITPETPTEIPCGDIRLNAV
Sequence of D2 (P14416 1-414 isoform P14416-2): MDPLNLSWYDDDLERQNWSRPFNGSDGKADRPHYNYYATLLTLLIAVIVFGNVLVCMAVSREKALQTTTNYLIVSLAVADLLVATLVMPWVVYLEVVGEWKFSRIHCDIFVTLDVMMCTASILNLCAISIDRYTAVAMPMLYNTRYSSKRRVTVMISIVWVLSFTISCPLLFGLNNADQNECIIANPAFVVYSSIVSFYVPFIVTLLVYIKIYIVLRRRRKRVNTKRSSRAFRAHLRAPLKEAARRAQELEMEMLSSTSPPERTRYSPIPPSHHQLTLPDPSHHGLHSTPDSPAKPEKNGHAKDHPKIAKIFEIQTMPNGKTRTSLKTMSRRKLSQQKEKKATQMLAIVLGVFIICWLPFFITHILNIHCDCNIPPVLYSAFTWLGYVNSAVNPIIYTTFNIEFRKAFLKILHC
Sequence of D1 (P21728 whole entry): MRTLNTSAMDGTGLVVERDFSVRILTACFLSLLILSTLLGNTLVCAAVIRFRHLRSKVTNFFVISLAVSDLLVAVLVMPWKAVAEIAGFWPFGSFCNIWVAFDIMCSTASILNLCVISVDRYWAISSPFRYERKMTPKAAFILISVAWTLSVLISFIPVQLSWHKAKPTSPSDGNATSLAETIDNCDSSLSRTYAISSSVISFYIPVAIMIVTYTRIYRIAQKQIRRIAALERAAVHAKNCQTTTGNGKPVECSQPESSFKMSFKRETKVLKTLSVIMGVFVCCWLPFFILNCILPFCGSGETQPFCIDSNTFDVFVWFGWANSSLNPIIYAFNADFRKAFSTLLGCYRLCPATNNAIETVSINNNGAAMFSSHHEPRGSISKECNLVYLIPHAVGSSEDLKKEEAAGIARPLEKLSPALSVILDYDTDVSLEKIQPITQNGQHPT

SMILES	D2 receptor binding, in words [1]	D1 receptor binding, in words [2]	SERT activity, in words [3]	5-HT2A receptor activity, in words [4]	mu-opiate receptor binding, in words [5]
O=C1CN2c3c(cccc3[C@@H]3CN(CCCOc4ccc(F)cc4)CC[C@H]32)N1 (racemic) [Example 1, trans-8-(3-(4-fluorophenoxy)propyl)-6b,7,8,9,10,10a-hexahydro-1H-pyrido[3′,4′:4,5]pyrrolo[1,2,3-de]quinoxalin-2(3H)-one]	moderate D2 receptor binding	very strong	no SERT activity		
O=C1CN2c3c(cccc3[C@@H]3CN(CCCOc4ccc(F)cc4)CC[C@@H]32)N1 [Compound A]			very little SERT binding		
O=C1CN2c3c(cccc3[C@H]3CN(CCCOc4ccc(F)cc4)CC[C@H]32)N1 [Compound B]	weak D2 receptor affinity	moderately strong D1 receptor binding	no SERT activity	moderately strong	only weak mu receptor activity
